Test results reported in ChEMBL document CHEMBL2034833, “Synthesis of chalcone-amidobenzothiazole conjugates as antimitotic and apoptotic inducing agents” (Bioorg Med Chem, 2012).
pIC50: −log10 of the molar value.

What was measured:
[1] = Inhibition of tubulin polymerization at 3 uM after 1 hr by fluorescence assay
ACHN = experiment: Cytotoxicity against human ACHN cells after 48 hrs by MTT assay; type: functional, cell-based
MCF7 = experiment: cells; conditions: Homo sapiens, MCF7, 48 h
Description: Cytotoxicity against human MCF7 cells after 48 hrs by MTT assay

A549 = experiment: cells; conditions: Homo sapiens, A549, 48 h
Description: Cytotoxicity against human A549 cells after 48 hrs by MTT assay

HT-29 = experiment: Cytotoxicity against human HT-29 cells after 48 hrs by MTT assay; type: functional, cell-based; conditions: HT-29, 48 h, read-out: IC50
A-375 = experiment: Cytotoxicity against human A375 cells after 48 hrs by MTT assay; type: functional, cell-based; conditions: A-375, 48 h

Row | Structure (SMILES) | inhibition [1] [%] | pIC50 (ACHN) | pIC50 (MCF7) | pIC50 (A549) | pIC50 (HT-29) | pIC50 (A-375)
1 | COC(=O)Nc1nc2cc(C(=O)c3cccs3)ccc2[nH]1 | 59.6 | – | – | – | – | –
2 | COc1ccc(/C=C/C(=O)c2cc(OC)c(OC)c(OC)c2)cc1OCC(=O)Nc1nc2c(C)cccc2s1 | – | 5.42 | 5.60 | 5.29 | 5.21 | 5.55
